Results published in patent US11655308B2, “HM-3 fusion protein and application thereof” (TASLY BIOPHARMACEUTICALS CO., LTD., priority 2017, dated 2023).
Marks after values point to notes of the source that are not given here.

Legend:
Format in all cases: cell-based
[1] = system: mice splenic lymphocyte proliferation stimulated by ConA
Experimental: Experimental method: mice orbit was by bloodletting to death, and immediately immersed in 75% ethanol for 5-10 min, and then the spleen was removed on a clean bench and placed in PBS. The spleen was placed on a sterile cell strainer (200 mesh) and ground with a syringe nozzle; during grinding process, PBS was added continuously; the slurry was collected and centrifuged (1000 rpm for 5 min), then cells were washed 3 times with Tris-ammonium chloride solution, and washed again with a medium, and then re-suspended in the medium. Finally, trypan blue living cell staining was performed on the cells, and the survival rate was more than 95%. The concentration of viable cells was adjusted to 2×10^6/mL. […] was added to each well of a 96-well plate, meanwhile, ConA (concanavalin to simulate splenocyte proliferation) and drugs were added to each well. Six duplicates were set in each group.
The 96-well plate was incubated for 48 h in a 5% CO2 incubator at 37° C. 5 mg/mL of MTT was added to the 96-well plate, 20 μL for each well, and then it was incubated continuously for 4 h in the incubator. The culture medium in the 96-well plate was discarded and 100 μL DMSO was added to each well and mixed gently. Absorbance was measured by a microplate reader at the wavelength of 570 nm and reference wavelength of 630 nm.
Proliferation inhibition rate (PI) was calculated according to formula:
[formula] wherein, Atest is the absorbance of dosing group, and Acontrol is the absorbance of negative control. Test results were expressed as mean±SD, and statistical T test was performed. *P<0.05 indicates significant difference, **P<0.01 indicates extremely significant difference. Based upon the results, the efficacy of the fusion protein against rheumatoid arthritis was screened.
In the P4 control group, TSL-4 fusion protein served as a control agent.

Rat chondrocyte [2] = assay: Influence of TSL-4 on viability of chondrocytes (MTT); parameters: key to MTT test value: absorbance at 570 nm (MTT)
Experimental: (§1) At the end of incubation according to the experimental plan, 10 μL of 5 mg/ml MTT was added to each experimental group based upon 1/10 of the cell culture volume, so that the cells were incubated with MTT in the incubator for 4 hours. Afterwards, supernatant was carefully discarded, and 200 μL of dimethyl sulfoxide (DMSO) was added for mixing well, then the absorbance was measured on a microplate reader at a test wavelength of 570 nm. Calculating formula of relative cell activity ratio (%): a mean value of the absorbance (per well) in the experimental group/the absorbance in the control group multiplies by 100%. […] The difference between each group was analyzed by Prism 7.0, and tested by one-way ANOVA. *P<0.05 means statistical difference, **P<0.01 means significant statistical difference, and […] means extremely significant statistical difference.
The concentration of TSL-4 should be selected within 0.1, 0.3, 1, 3, 9, 27 μM.
In early experiment, the TSL-4 at each concentration had no effect on cell viability, therefore, it was diluted to 0.23 μM from 29.3 μM according to a dilution ratio of 1:5 based upon the concentration (293 μM) of the primary TSL-4 solution.

Rat chondrocyte [3] = assay: Protective effect of TSL-4 on chondrocytes injured by hydrogen peroxide (MTT)
Experimental: The culture medium was replaced to different experimental groups in the following day with a dose volume of 100 μl and incubated for 24 or 48 hours respectively.
as §1
In order to detect the protective effect of TSL-4 on chondrocytes injured by hydrogen peroxide, the experiment was divided into three groups control group (no hydrogen peroxide and TSL-4, only adding fresh culture medium), hydrogen peroxide modeling group (only adding hydrogen peroxide cell culture medium containing different concentrations) and TSL-4 administration group (containing hydrogen peroxide). In order to detect the protective effect of TSL-4 on chondrocytes injured by hydrogen peroxide, TSL-4 and hydrogen peroxide were cultured with chondrocytes for 24 hours. The dosage of hydrogen peroxide was selected within 0.1, 0.25, 0.5 and 1 mM; the TSL-4 dosage was 0.23, 1.17, 5.86, 29.3
In the presence of different doses of H2O2, TSL-4 at proper concentration and chondrocytes were cultured for 24 h, and the relative cell viability in each administration group (relative absorbance percentage to the control group) was expressed as the following X±SD.
In the presence of the molding agent H2O2 at 0.25, 0.35, 0.5 mM, 1.17 and 5.86 μM TSL-4 were cultured with chondrocytes for 24 h, and the relative cell viability in each administration group (relative absorbance percentage to the control group) was expressed as the followings X±SD.

For mIgG4-Fc-(GGGGS)3-HM-3 [TSL-4], the “optimal (best) inhibition rate of splenic lymphocyte proliferation” value ([1]; ConA 5 μg/mL, 48 h, MTT, best of the tested concentrations) was 63.3%, the “inhibition rate compared with the positive control group” value ([1]; positive group Dexamethasone 50 μmol/L) was “higher than that of the positive control group” and the “inhibition ratio of mice splenic lymphocyte proliferation relative to group ConA” value ([1]; second round (Table 3)) was “enhanced significantly”. The MTT test value (Rat chondrocyte [2]; 0.1 μM TSL-4, 24 h (Table 24, low-dose), 0 μM 1.23) was 1.26, the MTT test value (Rat chondrocyte [2]; 0.23 μM TSL-4, 24 h (Table 25), 0 μM 1.68) was 1.59 and the MTT test value (Rat chondrocyte [2]; 0.3 μM TSL-4, 24 h (Table 24, low-dose), 0 μM 1.23) was 1.2. It also gave an MTT test value (Rat chondrocyte [2]; 1 μM TSL-4, 24 h (Table 23), 0 μM 1.43) of 1.59, an MTT test value (Rat chondrocyte [2]; 1 μM TSL-4, 24 h (Table 24, low-dose), 0 μM 1.23) of 1.15 and an MTT test value (Rat chondrocyte [2]; 1 μM TSL-4, 48 h (Table 23), 0 μM 1.70) of 1.43. It also gave an MTT test value (Rat chondrocyte [2]; 1 μM TSL-4, 72 h (Table 23), 0 μM 1.51) of 1.61, an MTT test value (Rat chondrocyte [2]; 1.17 μM TSL-4, 24 h (Table 25), 0 μM 1.68) of 1.4 and an MTT test value (Rat chondrocyte [2]; 3 μM TSL-4, 24 h (Table 23), 0 μM 1.43) of 1.67. For the same substance, the MTT test value (Rat chondrocyte [2]; 3 μM TSL-4, 24 h (Table 24, low-dose), 0 μM 1.23) was 1.08, the MTT test value (Rat chondrocyte [2]; 3 μM TSL-4, 48 h (Table 23), 0 μM 1.70) was 1.43 and the MTT test value (Rat chondrocyte [2]; 3 μM TSL-4, 72 h (Table 23), 0 μM 1.51) was 1.52. For the same substance, the MTT test value (Rat chondrocyte [2]; 5.86 μM TSL-4, 24 h (Table 25), 0 μM 1.68) was 1.39, the MTT test value (Rat chondrocyte [2]; 9 μM TSL-4, 24 h (Table 23), 0 μM 1.43) was 1.72 and the MTT test value (Rat chondrocyte [2]; 9 μM TSL-4, 48 h (Table 23), 0 μM 1.70) was 1.51. The MTT test value (Rat chondrocyte [2]; 9 μM TSL-4, 72 h (Table 23), 0 μM 1.51) was 1.57, the MTT test value (Rat chondrocyte [2]; 27 μM TSL-4, 24 h (Table 23), 0 μM 1.43) was 1.45 and the MTT test value (Rat chondrocyte [2]; 27 μM TSL-4, 48 h (Table 23), 0 μM 1.70) was 1.30. The MTT test value (Rat chondrocyte [2]; 27 μM TSL-4, 72 h (Table 23), 0 μM 1.51) was 1.31, the MTT test value (Rat chondrocyte [2]; 29.3 μM TSL-4, 24 h (Table 25), 0 μM 1.68) was 1.24 and the “influence on cell viability” value (Rat chondrocyte [2]; 0.1-3 μM TSL-4, 24 h) was “no significant difference”. The “influence on cell viability” value (Rat chondrocyte [2]; 0.23-29.3 μM TSL-4, 24 h) was “no significant change in cell viability”, the “influence on cell viability” value (Rat chondrocyte [2]; 1-27 μM TSL-4, 24, 48 and 72 hours) was “no significant influence on cell viability” and the “relative cell viability (relative absorbance percentage to the control group)” value (“relative absorbance percentage” for short) (Rat chondrocyte [3]; 0.23 μM TSL-4, 0.1 mM H2O2, 24 h, 0 μM 106.87 ± 9.52) was 84.23 ± 20.42***. The “relative absorbance percentage” value (Rat chondrocyte [3]; 0.23 μM TSL-4, 0.25 mM H2O2, 24 h, 0 μM 70.96 ± 11.61) was 71.42 ± 6.74, the “relative absorbance percentage” value (Rat chondrocyte [3]; 0.23 μM TSL-4, 0.5 mM H2O2, 24 h, 0 μM 1.68 ± 0.82) was 3.17 ± 1.45 and the “relative absorbance percentage” value (Rat chondrocyte [3]; 0.23 μM TSL-4, 1 mM H2O2, 24 h, 0 μM 3.57 ± 0.60) was 0.89 ± 0.32. The “relative absorbance percentage” value (Rat chondrocyte [3]; 1.17 μM TSL-4, 0.1 mM H2O2, 24 h, 0 μM 106.87 ± 9.52) was 100.01 ± 5.02, the “relative absorbance percentage” value (Rat chondrocyte [3]; 1.17 μM TSL-4, 0.25 mM H2O2, 24 h, 0 μM 70.96 ± 11.61) was 85.11 ± 8.08* and the “relative absorbance percentage” value (Rat chondrocyte [3]; 1.17 μM TSL-4, 0.5 mM H2O2, 24 h, 0 μM 1.68 ± 0.82) was 16.56 ± 5.91*. For the same substance, the “relative absorbance percentage” value (Rat chondrocyte [3]; 1.17 μM TSL-4, 1 mM H2O2, 24 h, 0 μM 3.57 ± 0.60) was 1.14 ± 1.07, the “relative absorbance percentage” value (Rat chondrocyte [3]; 5.86 μM TSL-4, 0.1 mM H2O2, 24 h, 0 μM 106.87 ± 9.52) was 102.36 ± 9.75 and the “relative absorbance percentage” value (Rat chondrocyte [3]; 5.86 μM TSL-4, 0.25 mM H2O2, 24 h, 0 μM 70.96 ± 11.61) was 86.35 ± 4.20*. For the same substance, the “relative absorbance percentage” value (Rat chondrocyte [3]; 5.86 μM TSL-4, 0.5 mM H2O2, 24 h, 0 μM 1.68 ± 0.82) was 10.27 ± 7.08, the “relative absorbance percentage” value (Rat chondrocyte [3]; 5.86 μM TSL-4, 1 mM H2O2, 24 h, 0 μM 3.57 ± 0.60) was 1.21 ± 0.70 and the “relative absorbance percentage” value (Rat chondrocyte [3]; 29.3 μM TSL-4, 0.1 mM H2O2, 24 h, 0 μM 106.87 ± 9.52) was 76.46 ± 5.45****. For the same substance, the “relative absorbance percentage” value (Rat chondrocyte [3]; 29.3 μM TSL-4, 0.25 mM H2O2, 24 h, 0 μM 70.96 ± 11.61) was 59.72 ± 3.49, the “relative absorbance percentage” value (Rat chondrocyte [3]; 29.3 μM TSL-4, 0.5 mM H2O2, 24 h, 0 μM 1.68 ± 0.82) was 3.87 ± 6.00 and the “relative absorbance percentage” value (Rat chondrocyte [3]; 29.3 μM TSL-4, 1 mM H2O2, 24 h, 0 μM 3.57 ± 0.60) was 0.43 ± 0.53. For the same substance, the “viability of chondrocytes stimulated by H2O2” value (Rat chondrocyte [3]; 0.23/29.3 μM TSL-4, 0.1 mM H2O2) was “relatively significantly inhibiting effect”, the “relative absorbance percentage” value (Rat chondrocyte [3]; repeated trial: 1.17 μM TSL-4, 0.25 mM H2O2, 24 h, 0 μM 78.77 ± 7.45) was 85.31 ± 7.36 and the “relative absorbance percentage” value (Rat chondrocyte [3]; repeated trial: 1.17 μM TSL-4, 0.35 mM H2O2, 24 h, 0 μM 63.96 ± 6.46) was 68.54 ± 3.62. The “relative absorbance percentage” value (Rat chondrocyte [3]; repeated trial: 1.17 μM TSL-4, 0.5 mM H2O2, 24 h, 0 μM 37.10 ± 6.53) was 41.46 ± 2.08, the “relative absorbance percentage” value (Rat chondrocyte [3]; repeated trial: 5.86 μM TSL-4, 0.25 mM H2O2, 24 h, 0 μM 78.77 ± 7.45) was 87.36 ± 7.85 and the “viability of chondrocytes injured by H2O2” value (Rat chondrocyte [3]; repeated trial: 5.86 μM TSL-4, 0.35 mM H2O2) was “significantly improve the viability of chondrocytes”. For the same substance, the “relative absorbance percentage” value (Rat chondrocyte [3]; repeated trial: 5.86 μM TSL-4, 0.35 mM H2O2, 24 h, 0 μM 63.96 ± 6.46) was 73.29 ± 4.39 and the “relative absorbance percentage” value (Rat chondrocyte [3]; repeated trial: 5.86 μM TSL-4, 0.5 mM H2O2, 24 h, 0 μM 37.10 ± 6.53) was 45.07 ± 6.36.
